In brackets after ≈: the same amount, converted by molar mass.

Series [1] can be described thus: Solubility of compound. In kind it is physicochemical.
Series [2] can be described thus: Half-life in mouse at 0.5 mg/kg, iv. In kind it is ADME, organism-based. The settings on record: in vivo.
A short description of series [3]: Metabolic stability in human liver microsomes assessed as parent compound remaining after 10 mins. In kind it is ADME, Microsome. To be noted: read-out: Stabilty. On the technique in general: Liver microsomes are a subcellular fraction often used to study metabolism.
A short description of series [4]: Protein binding in rat assessed as unbound fraction. The class given is ADME.
Series [5] is described as follows: Permeability of the compound across basolateral to apical side of membrane in human Caco-2 cells. The class given is ADME, cell-based. The settings on record: read-out: permeability. For orientation: Caco-2 monolayers are a common model of the intestinal barrier.
Series [6] concerns Mus musculus. Description: Antiarthritic activity against anticollagen antibody-induced arthritis BALB/c mouse model assessed as reduction in LPS-induced CXCL10 levels administered orally twice daily followed by LPS stimulation after 6 hrs measured on day 12 by RT-PCR analysis. In kind it is functional, organism-based. The settings on record: dose 2-10 mg/kg, time 12.0 day.
Series [7] relates to Mus musculus. Briefly: Antiarthritic activity against anticollagen antibody-induced arthritis BALB/c mouse model assessed as reduction in LPS-induced IL-1beta production administered orally twice daily followed by LPS stimulation after 6 hrs measured on day 12 by RT-PCR analysis. In kind it is functional, organism-based. The settings on record: dose 2-10 mg/kg, time 12.0 day.

Series [8] has as its system Mus musculus. Briefly: Antiarthritic activity against anticollagen antibody-induced arthritis BALB/c mouse model assessed as reduction in LPS-induced cells expressing B220 receptor administered orally twice daily followed by LPS stimulation after 6 hrs measured on day 12 by RT-PCR analysis. In kind it is functional, organism-based. The settings on record: dose 2-10 mg/kg, time 12.0 day.

Series [9] is described as follows: Clearance in mouse at 0.5 mg/kg, iv. To be noted: in vivo. The class given is ADME, organism-based.
The target of series [10] is T1, Cytochrome P450 2C8 (Homo sapiens, UniProt P10632).
T1 sequence (P10632 whole entry): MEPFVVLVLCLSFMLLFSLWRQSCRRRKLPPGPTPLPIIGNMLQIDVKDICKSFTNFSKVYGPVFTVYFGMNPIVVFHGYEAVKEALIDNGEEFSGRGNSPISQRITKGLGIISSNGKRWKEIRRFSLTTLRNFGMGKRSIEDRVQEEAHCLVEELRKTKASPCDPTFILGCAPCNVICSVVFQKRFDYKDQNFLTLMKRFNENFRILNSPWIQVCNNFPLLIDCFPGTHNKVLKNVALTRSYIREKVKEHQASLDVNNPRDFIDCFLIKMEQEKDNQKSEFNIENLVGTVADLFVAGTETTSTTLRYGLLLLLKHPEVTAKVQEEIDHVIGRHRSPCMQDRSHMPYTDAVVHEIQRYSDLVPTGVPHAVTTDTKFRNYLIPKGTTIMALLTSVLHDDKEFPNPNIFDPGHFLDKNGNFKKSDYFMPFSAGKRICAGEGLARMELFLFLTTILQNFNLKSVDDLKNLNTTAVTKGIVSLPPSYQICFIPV
Briefly: Inhibition of recombinant CYP2C8 (unknown origin). In kind it is ADME.

Series [11] deals with Mus musculus. Description: Antiarthritic activity against anticollagen antibody-induced arthritis BALB/c mouse model assessed as reduction in LPS-induced cells expressing CD3 receptor administered orally twice daily followed by LPS stimulation after 6 hrs measured on day 12 by RT-PCR analysis. The class given is functional, organism-based. To be noted: dose 2-10 mg/kg, time 12.0 day.

Series [12] in a line: Metabolic stability in mouse liver microsomes assessed as half-life. In kind it is ADME, Microsome.
Series [13] is described as follows: Cmax in mouse at 2 mg/kg, po. The class given is ADME, organism-based. Set-up: route oral, dose 2 mg/kg. The settings on record: in vivo.
The nature of series [14]: Drug exposure in TNFalpha-induced C57BL/6J mouse at 5 mg/kg, po pretreated with compound prior to 1 hr of TNFalpha challenge and measured at 3 hrs post dose. In kind it is ADME, organism-based. The settings on record: in vivo, read-out: Drug uptake.
Series [15] has as its target T2, Tumor necrosis factor receptor superfamily member 1A (Homo sapiens) (UniProt P19438).
T2 sequence (whole entry): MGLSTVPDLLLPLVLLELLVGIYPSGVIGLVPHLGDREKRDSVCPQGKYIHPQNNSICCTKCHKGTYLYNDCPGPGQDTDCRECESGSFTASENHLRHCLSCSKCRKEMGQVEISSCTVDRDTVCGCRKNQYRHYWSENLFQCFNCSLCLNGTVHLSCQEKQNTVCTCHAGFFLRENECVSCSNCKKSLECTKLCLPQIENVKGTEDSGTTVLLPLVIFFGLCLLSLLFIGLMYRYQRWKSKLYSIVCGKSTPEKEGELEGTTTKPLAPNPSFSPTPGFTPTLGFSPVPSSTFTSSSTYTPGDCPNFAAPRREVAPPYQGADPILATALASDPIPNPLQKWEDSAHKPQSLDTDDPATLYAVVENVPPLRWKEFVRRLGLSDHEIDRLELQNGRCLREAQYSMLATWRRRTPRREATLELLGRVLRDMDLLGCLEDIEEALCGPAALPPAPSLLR
Description: Binding affinity to TNFR1 (unknown origin) assessed as sedimentation coefficient (S) value at 25 uM in presence of human TNFalpha by ultracentrifugation analysis (reference value: 2.2).

Series [16] deals with T2, Tumor necrosis factor receptor superfamily member 1A (Homo sapiens). Description: Binding affinity to TNFR1 (unknown origin) assessed as apparent molecular weight of protein at 25 uM by ultracentrifugation analysis (reference value: 27 kDa).
The target in series [17] is T3, CD40 ligand (Homo sapiens, UniProt P29965).
T3 sequence (P29965 whole entry): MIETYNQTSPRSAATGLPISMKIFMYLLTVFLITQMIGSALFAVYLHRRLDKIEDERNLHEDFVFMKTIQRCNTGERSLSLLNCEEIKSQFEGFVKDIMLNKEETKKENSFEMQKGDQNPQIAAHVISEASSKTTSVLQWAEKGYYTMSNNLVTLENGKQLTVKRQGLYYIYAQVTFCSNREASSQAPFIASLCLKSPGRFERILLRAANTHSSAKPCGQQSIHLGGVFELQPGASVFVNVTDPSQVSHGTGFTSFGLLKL
Briefly: Inhibition of CD40L (unknown origin).

Series [18] is described as follows: Protein binding in mouse assessed as unbound fraction. In kind it is ADME.
Series [19] deals with T4, Cytochrome P450 1A2 (Homo sapiens, UniProt P05177).
T4 sequence (P05177 whole entry): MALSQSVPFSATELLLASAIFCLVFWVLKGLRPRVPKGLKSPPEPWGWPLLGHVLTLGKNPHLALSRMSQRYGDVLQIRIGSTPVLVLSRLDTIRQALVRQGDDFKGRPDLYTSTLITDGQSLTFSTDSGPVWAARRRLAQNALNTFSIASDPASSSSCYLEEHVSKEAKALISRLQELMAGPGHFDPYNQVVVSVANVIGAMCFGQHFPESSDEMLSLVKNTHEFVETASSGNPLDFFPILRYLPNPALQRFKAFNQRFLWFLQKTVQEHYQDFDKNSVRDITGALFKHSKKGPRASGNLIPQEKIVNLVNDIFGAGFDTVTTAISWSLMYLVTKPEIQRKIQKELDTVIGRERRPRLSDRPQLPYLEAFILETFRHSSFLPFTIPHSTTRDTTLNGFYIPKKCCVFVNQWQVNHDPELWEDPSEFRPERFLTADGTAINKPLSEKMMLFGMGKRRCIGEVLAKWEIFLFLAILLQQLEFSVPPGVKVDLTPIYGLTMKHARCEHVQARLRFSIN
Description: Inhibition of recombinant CYP1A2 (unknown origin). The class given is ADME.

Series [20] concerns the target Tumor necrosis factor (Homo sapiens, UniProt P01375). Briefly: Inhibition of exogenous human TNFalpha in HEK-Blue-CD40L cells assessed as reduction in TNF-alpha-induced NFkappaB activation incubated for 18 hrs by quanti-blue based SEAP assay. The class given is cell-based.
For series [21], the target named is Cytochrome P450 2C9 (Homo sapiens, UniProt P11712). Briefly: Inhibition of recombinant CYP2C9 (unknown origin). The class given is ADME.
Chain of Cytochrome P450 2C9 (P11712 whole entry): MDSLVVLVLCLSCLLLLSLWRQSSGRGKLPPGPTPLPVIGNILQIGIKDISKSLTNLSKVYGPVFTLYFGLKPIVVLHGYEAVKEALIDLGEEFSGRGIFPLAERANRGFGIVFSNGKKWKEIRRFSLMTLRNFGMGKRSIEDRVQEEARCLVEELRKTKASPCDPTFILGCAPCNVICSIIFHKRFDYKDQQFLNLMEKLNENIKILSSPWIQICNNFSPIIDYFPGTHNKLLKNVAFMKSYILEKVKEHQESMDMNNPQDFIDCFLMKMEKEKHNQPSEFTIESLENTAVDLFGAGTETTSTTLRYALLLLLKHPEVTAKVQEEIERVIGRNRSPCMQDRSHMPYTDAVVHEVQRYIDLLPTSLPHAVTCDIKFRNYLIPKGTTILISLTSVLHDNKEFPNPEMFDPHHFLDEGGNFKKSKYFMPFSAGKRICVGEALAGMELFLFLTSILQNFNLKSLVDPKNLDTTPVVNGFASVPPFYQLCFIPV

Chain of Tumor necrosis factor (P01375 whole entry): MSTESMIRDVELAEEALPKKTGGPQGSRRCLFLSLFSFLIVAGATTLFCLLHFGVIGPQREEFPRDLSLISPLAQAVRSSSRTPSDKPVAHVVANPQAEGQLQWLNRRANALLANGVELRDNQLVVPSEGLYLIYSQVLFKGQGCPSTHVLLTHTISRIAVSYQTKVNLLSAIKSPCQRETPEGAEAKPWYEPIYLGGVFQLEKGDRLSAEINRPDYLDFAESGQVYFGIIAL

In general, solubility refers to the dissolved amount per volume that the medium holds. By half-life is commonly meant the time in which the quantity being followed falls by half. As usually defined, the clearance is the volume of plasma or blood freed of the substance per unit of time. For orientation: IC50 means the concentration needed to halve the response being measured. A word on the Cmax: it is the maximum level reached in the sampled fluid or tissue. For `Cc1nc2cc(F)c(-c3cnc(C(C)(C)O)nc3)nc2c(N[C@H](C)c2cc(C#N)ccc2F)c1Cl`, the concentration in solution in series [1] (solubility) came to 1 µg/mL (≈ 2.02 µM). Also, the results for the half-life in series [2] and in [12] were 6.2 h and 1.3 h, respectively. In series [3], the remaining at 10 min was 95%. Moreover, the figures for the Fu in series [4] and in series [18] were 0.4% and 0.6%, respectively. In addition, in series [5], the Papp B→A was determined as 8 ×10⁻⁶ cm/s. Besides, the Activity result in series [6] was “Dose-dependent effect”; in series [7] it was “Dose-dependent effect”; in series [8] it was “Dose-dependent effect”; in [11] it was “Dose-dependent effect”; in series [16], 27 kDa. In series [9], the clearance came to 6.6 mL/min/kg. Further, the half-maximal inhibitory concentration (IC50) in series [10] was more than 6700 nM; in series [17], more than 10000 nM; in [19], more than 20000 nM; in series [20], 27 nM; in series [21], 2000 nM. In series [13], the Cmax amounted to 470 nM. Further, in [14], the concentration at 3 h was 470 nM. Also, the Activity index in [15] came to 2.2.

The record behind these values is ChEMBL document CHEMBL4680302, “Biologic-like In Vivo Efficacy with Small Molecule Inhibitors of TNFα Identified Using Scaffold Hopping and Structure-Based Drug Design Approaches” (J Med Chem, 2020).
